Measured values from PubChem BioAssay AID2060605 (Molecular Pharmacology Branch, DTP, NCI, 2025).
pIC50: −log10 of the molar value. Where “and” joins values, the source holds several entries; their conditions need not be identical. Equal values may be shown once.

System: 947758-054-R-J2-PDC spheroid growth, percent test/control
Assay: Anticancer human tumor 947758-054-R-J2-PDC patient-derived colon adenocarcinoma cell line growth inhibition [CLK]
Conditions: spheroids with HUVEC and MSC; for viability, T/C: stronger effect = lower value; for pIC50: curve of compound
From the text: A high-throughput screen of multi-cell type tumor spheroids was designed to identify active combinations of […] and targeted small molecules. Complex spheroids include a stromal component modeled by human endothelial cells (HUVEC) and fibroblasts modeled by human mesenchymal stem cells (MSCs). The concentration ranges selected for each drug and investigational agent were based upon clinically achievable concentrations if the clinical Cmax of the agent was known.
Compounds. The drugs and investigational agents: cirtuvivint (SM08502; NSC835563), CC-671 (NSC850746), vemurafenib (NSC761431), tapotoclax (NSC804041), sotorasib (NSC818433), adagrasib (NSC831453), MRTX-1133 (NSC836407), BAY2416964 (NSC825713), copanlisib (NSC816437), inavolisib (NSC800729), abemaciclib (NSC768073), osimertinib (NSC779217), entinostat (NSC756642), eltanexor (KPT-8602, NSC794443), venetoclax (NSC766270), ceralasertib (NSC777638), bortezomib (NSC756655), olaparib (NSC753686), talazoparib (NSC767125), alisertib (NSC759677), peposertib (NSC802822), gemcitabine (NSC613327), 5-fluorouracil (NSC19893), SN-38 (NSC673596), oxaliplatin (NSC266046), paclitaxel (NSC125973), and doxorubicin (NSC123127), were obtained from the National Cancer Institute (NCI) Developmental Therapeutics Program Chemical Repository. The FDA-approved anticancer drug set is available from the Developmental Therapeutics Program at https://dtp.cancer.gov/organization/dscb/obtaining/available plates.htm. […] The stock solutions were prepared in dimethyl sulfoxide (DMSO, Sigma-Aldrich, St. Louis, MO, cat. D2650), except for the platinum complexes which were prepared in saline (Quality Biological, Gaithersburg, MD, cat. 114-055-101), at 800-fold the tested concentration and stored at -70 degrees C prior to their use. All drugs and investigational agents were tested over a range starting from a high concentration at or near the clinical Cmax and decreasing in half-log increments. If the clinical Cmax for an agent had not been determined, the highest concentration tested was 10 microM.
Cell Culture. All cells were maintained in an incubator at 37 degrees C and 5% CO2 with 95% humidity. The PDC lines were cultured according to standard operating procedures established by the NCI PDMR. Briefly, all PDCs were thawed and cultured in Matrigel-coated flasks prepared with a working solution of 1X Ham's F-12 nutrient mix, without supplementation (Invitrogen, Waltham, MA, cat. 11765054), 100 U/mL penicillin-streptomycin (Invitrogen, cat. 15140122), and 2.5% Matrigel (Corning Inc., Corning, NY, cat. 354248) for the first three passages. The 947758-054-R-J2-PDC line was cultured in 6B/Colon 1A media, which includes advanced DMEM/F-12 (Thermo Fisher Scientific, cat. 12634028), 10 mM HEPES (Thermo Fisher Scientific, cat. 15630080), 1X GlutaMAX supplement (Thermo Fisher Scientific, cat. 35050061), 0.1 mg/mL primocin (InvivoGen, cat. ant-pm-2), 10% defined fetal bovine serum, heat inactivated (HyClone Laboratories Inc., cat. SH30070.03HI), 1.25 mM N-Acetyl-L-cysteine (Sigma-Aldrich, cat. A9165), 10 mM nicotinamide (Sigma-Aldrich, cat. N0636), 1X B-27 supplement (Thermo Fisher Scientific, cat. 17504044), 1X N-2 supplement (Thermo Fisher Scientific, cat. 17502048), and 10 microM Y-27632 dihydrochloride (Tocris Bioscience, cat. 1254). The 876862-298-R-J1-PDC was cultured in 6E media, which includes all 6B/Colon 1A media components plus 50% L-WRN conditioned media (ATCC, cat. CRL-3276), 50 ng/mL recombinant human EGF recombinant protein (hEGF; Thermo Fisher Scientific, cat. PHG0311), 10 ng/mL recombinant human fibroblast growth factor 10 (hGFG-10; PeproTech, cat. 100-26), 1 ng/mL recombinant human fibroblast growth factor 2 (hFGF-2; PeproTech, cat. 100-18B), and 1 µM prostaglandin E2 (PGE2; Tocris, cat. 2296). The 227483-062-R1-J1-PDC line was cultured in Panc media, containing all 6E components except hFGF-2, with the addition of 500 nM SB-431542 (Selleckchem, cat. S1067) and 10 nM gastrin (Tocris, cat. 3006). […]
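Also: spheroids exposed to compounds for one week before readout.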
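For viability, T/C in this document: 100% = DMSO vehicle control wells.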

| SMILES | viability, T/C (compound 0.0316 µM) | viability, T/C (compound 0.1 µM) | viability, T/C (compound 0.316 µM) | viability, T/C (compound 1 µM) | viability, T/C (compound 3.16 µM) | viability, T/C (compound 10 µM) | pIC50 | IC50 (compound alone, run of 09/18/2023) |
| --- | --- | --- | --- | --- | --- | --- | --- | --- |
| CC(=O)O[C@H]1C(=O)[C@@]2(C)[C@H]([C@H](OC(=O)c3ccccc3)[C@]3(O)C[C@H](OC(=O)[C@H](O)[C@@H](NC(=O)c4ccccc4)c4ccccc4)C(C)=C1C3(C)C)[C@]1(OC(C)=O)CO[C@@H]1C[C@@H]2O | 7.6% and 8.82% | 6.29% and 6.22% | 5.41% and 6.88% | 5.07% and 6.19% | 6.6% and 8.41% | 11.7% and 13.7% | > 7.50 | – |
| CN1CCN(c2cc(C(=O)Nc3cc4cc(-c5cnn(C)c5)ccc4cn3)ccn2)CC1 | – | – | 5.15% [middle of 12 runs] | 0.61% [middle of 11 runs] | 0.65% [middle of 10 runs] | 0.36% [middle of 11 runs] | – | 216 nM [middle of 10 runs] |
| COc1ccc([C@@H](O)c2cc(-c3ncnc4cc(N5CCOCC5)ccc34)c(F)cc2Cl)nn1 | 72.8% and 98.3% | 69.7% and 91.4% | 86.8% and 105% | 108% and 82.2% | 97.9% and 117% | 65.9% and 83.9% | < 5.00 | – |
| COc1cccc2c1C(=O)c1c(O)c3c(c(O)c1C2=O)CC(O)(C(=O)CO)CC3OC1CC(N)C(O)C(C)O1 (stereo unspecified) | 94.6% and 56.2% | 39.9% and 44.2% | 22.5% and 26.6% | 11.3% | 0.28% and 0.34% | 3.11% and 2.84% | 7.07 and 7.23 | – |
